In US11078228B2, “Ectonucleotidase inhibitors and methods of use thereof” (Calithera Biosciences, Inc., priority 2018, dated 2021):

Target: recombinant CD73 (Homo sapiens (Human), UniProt P21589)
Experiment: Assay 2: Inhibition of the CD73 enzyme in vitro (0.05 nM CD73, 1 hour 37° C., Malachite Green)
Assay type: biochemical
Conditions: 0.05 nM CD73, 50 μM AMP, 1 hour at 37° C.
Description: For measurements of soluble CD73 enzyme activity, recombinant CD73 was obtained from R&D Systems, Cat. No. 5795-EN-010. […] Reactions were allowed to proceed for 1 hour at 37° C. before the addition of 100 μL Malachite Green (Cell Signaling Technology, Cat. No. 12776). After 5 minutes at room temperature, absorbance at 630 nm was determined on a microplate spectrophotometer. The concentration of inorganic phosphate was determined using a phosphate standard curve.

recombinant CD73, sequence (P21589 27-547): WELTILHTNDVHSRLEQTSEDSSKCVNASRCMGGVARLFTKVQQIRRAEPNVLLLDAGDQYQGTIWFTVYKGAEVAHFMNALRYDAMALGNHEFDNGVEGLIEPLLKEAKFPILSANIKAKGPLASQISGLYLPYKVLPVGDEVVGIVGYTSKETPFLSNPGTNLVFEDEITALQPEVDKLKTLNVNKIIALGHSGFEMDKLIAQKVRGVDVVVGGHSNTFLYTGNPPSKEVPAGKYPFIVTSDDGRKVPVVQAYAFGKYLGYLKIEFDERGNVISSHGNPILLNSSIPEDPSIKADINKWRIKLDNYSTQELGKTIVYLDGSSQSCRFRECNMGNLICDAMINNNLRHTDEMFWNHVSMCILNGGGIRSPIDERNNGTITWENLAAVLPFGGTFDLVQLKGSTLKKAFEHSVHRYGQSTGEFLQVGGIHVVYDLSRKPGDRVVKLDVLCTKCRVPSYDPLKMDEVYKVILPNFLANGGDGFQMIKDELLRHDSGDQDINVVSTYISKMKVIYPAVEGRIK

IC50 [nM]	Structure (SMILES)
0.5	C#C[C@@]1(O)[C@@H](COC(Cc2ccccc2)(C(=O)O)C(=O)O)O[C@@H](n2cnc3c(N(C)C4CC(O)C4)nc(Cl)nc32)[C@@H]1O (stereo partly drawn) [Example 48, 2-benzyl-2-(((2R,3S,4R,5R)-5-(2-chloro-6-((3-hydroxycyclobutyl)-(methyl)amino)-9H-purin-9-yl)-3-ethynyl-3,4-dihydroxytetrahydrofuran-2-yl)methoxy)malonic acid]
0.3	C#C[C@@]1(O)[C@@H](COC(Cc2ccc(-c3ccccc3)cc2)(C(=O)O)C(=O)O)O[C@@H](n2cnc3c(N)nc(Cl)nc32)[C@@H]1O [Example 53, 2-([1,1′-biphenyl]-4-ylmethyl)-2-(((2R,3S,4R,5R)-5-(6-amino-2-chloro-9H-purin-9-yl)-3-ethynyl-3,4-dihydroxytetrahydrofuran-2-yl)methoxy)malonic acid]
0.2	C#C[C@@]1(O)[C@@H](COC(Cc2ccc(-c3ccccc3C(=O)O)cc2)(C(=O)O)C(=O)O)O[C@@H](n2cnc3c(N)nc(Cl)nc32)[C@@H]1O [Example 54, 2-(((2R,3S,4R,5R)-5-(6-amino-2-chloro-9H-purin-9-yl)-3-ethynyl-3,4-dihydroxytetrahydrofuran-2-yl)methoxy)-2-((2′-carboxy-[1,1′-biphenyl]-4-yl)methyl)malonic acid]
> 200	CC[C@@]1(O)[C@@H](COC(Cc2ccccc2)(C(=O)O)C(=O)O)O[C@@H](n2cnc3c(N)nc(Cl)nc32)[C@@H]1O [Example 56, 2-(((2R,3S,4R,5R)-5-(6-amino-2-chloro-9H-purin-9-yl)-3-ethyl-3,4-dihydroxytetrahydrofuran-2-yl)methoxy)-2-benzylmalonic acid]
103	C=C[C@@]1(O)[C@@H](COC(Cc2ccccc2)(C(=O)O)C(=O)O)O[C@@H](n2cnc3c(N)nc(Cl)nc32)[C@@H]1O [Example 57, 2-(((2R,3S,4R,5R)-5-(6-amino-2-chloro-9H-purin-9-yl)-3,4-dihydroxy-3-vinyltetrahydrofuran-2-yl)methoxy)-2-benzylmalonic acid]
1.6	C#C[C@@]1(O)[C@@H](COC(Cc2ccccc2)(C(=O)O)C(=O)O)O[C@@H](n2cnc3ccc(Cl)nc32)[C@@H]1O [Example 58, 2-benzyl-2-(((2R,3S,4R,5R)-5-(5-chloro-3H-imidazo[4,5-b]pyridin-3-yl)-3-ethynyl-3,4-dihydroxytetrahydrofuran-2-yl)methoxy)malonic acid]
2	C#C[C@@]1(O)[C@@H](COC(Cc2ccccc2)(C(=O)O)C(=O)O)O[C@@H](n2cnc3c(N[C@H](C)c4ccccc4)nc(Cl)nc32)[C@@H]1O [Example 62, 2-benzyl-2-(((2R,3S,4R,5R)-5-(2-chloro-6-(((R)-1-phenylethyl)amino)-9H-purin-9-yl)-3-ethynyl-3,4-dihydroxytetrahydrofuran-2-yl)methoxy)malonic acid]
1	C#C[C@@]1(O)[C@@H](COC(Cc2ccccc2)(C(=O)O)C(=O)O)O[C@@H](n2cnc3c(N[C@@H](C)c4ccccc4)nc(Cl)nc32)[C@@H]1O [Example 63, 2-benzyl-2-(((2R,3S,4R,5R)-5-(2-chloro-6-(((S)-1-phenylethyl)amino)-9H-purin-9-yl)-3-ethynyl-3,4-dihydroxytetrahydrofuran-2-yl)methoxy)malonic acid]
3	C#C[C@@]1(O)[C@@H](COC(Cc2ccccc2)(C(=O)O)C(=O)O)O[C@@H](n2cnc3c(NC4CCOC4)nc(Cl)nc32)[C@@H]1O (stereo partly drawn) [Example 64, 2-benzyl-2-(((2R,3S,4R,5R)-5-(2-chloro-6-((tetrahydrofuran-3-yl)-amino)-9H-purin-9-yl)-3-ethynyl-3,4-dihydroxytetrahydrofuran-2-yl)methoxy)-malonic acid]
1	C#C[C@@]1(O)[C@@H](COC(Cc2ccccc2)(C(=O)O)C(=O)O)O[C@@H](n2cnc3c(N4CC[C@H](O)C4)nc(Cl)nc32)[C@@H]1O [Example 65, 2-benzyl-2-(((2R,3S,4R,5R)-5-(2-chloro-6-((S)-3-hydroxypyrrolidin-1-yl)-9H-purin-9-yl)-3-ethynyl-3,4-dihydroxytetrahydrofuran-2-yl)methoxy)malonic acid]
0.3	C#C[C@@]1(O)[C@@H](COC(Cc2ccccc2)(C(=O)O)C(=O)O)O[C@@H](n2cnc3c(N(C)CC)nc(Cl)nc32)[C@@H]1O [Example 66, 2-benzyl-2-(((2R,3S,4R,5R)-5-(2-chloro-6-(ethyl(methyl)amino)-9H-purin-9-yl)-3-ethynyl-3,4-dihydroxytetrahydrofuran-2-yl)methoxy)malonic acid]
0.8	C#C[C@@]1(O)[C@@H](COC(Cc2ccccc2)(C(=O)O)C(=O)O)O[C@@H](n2cnc3c(NCc4ccccc4F)nc(Cl)nc32)[C@@H]1O [Example 67, 2-benzyl-2-(((2R,3S,4R,5R)-5-(2-chloro-6-((2-fluorobenzyl)amino)-9H-purin-9-yl)-3-ethynyl-3,4-dihydroxytetrahydrofuran-2-yl)methoxy)malonic acid]
0.8	C#C[C@@]1(O)[C@@H](COC(Cc2ccccc2)(C(=O)O)C(=O)O)O[C@@H](n2cnc3c(NCc4ccc(F)cc4)nc(Cl)nc32)[C@@H]1O [Example 68, 2-benzyl-2-(((2R,3S,4R,5R)-5-(2-chloro-6-((4-fluorobenzyl)amino)-9H-purin-9-yl)-3-ethynyl-3,4-dihydroxytetrahydrofuran-2-yl)methoxy)malonic acid]
3	C#C[C@@]1(O)[C@@H](COC(Cc2ccccc2)(C(=O)O)C(=O)O)O[C@@H](n2cnc3c(N[C@@H]4CCc5ccccc54)nc(Cl)nc32)[C@@H]1O [Example 69, 2-benzyl-2-(((2R,3S,4R,5R)-5-(2-chloro-6-(((R)-2,3-dihydro-1H-inden-1-yl)amino)-9H-purin-9-yl)-3-ethynyl-3,4-dihydroxytetrahydrofuran-2-yl)methoxy)-malonic acid]
1	C#C[C@@]1(O)[C@@H](COC(Cc2ccccc2)(C(=O)O)C(=O)O)O[C@@H](n2cnc3c(NCCc4ccccc4)nc(Cl)nc32)[C@@H]1O [Example 70, 2-benzyl-2-(((2R,3S,4R,5R)-5-(2-chloro-6-(phenethylamino)-9H-purin-9-yl)-3-ethynyl-3,4-dihydroxytetrahydrofuran-2-yl)methoxy)malonic acid]
6	C#C[C@@]1(O)[C@@H](COC(Cc2ccccc2)(C(=O)O)C(=O)O)O[C@@H](n2cnc3c(NC)nc(Cl)nc32)[C@@H]1O [Example 71, 2-benzyl-2-(((2R,3S,4R,5R)-5-(2-chloro-6-(methylamino)-9H-purin-9-yl)-3-ethynyl-3,4-dihydroxytetrahydrofuran-2-yl)methoxy)malonic acid]
3	C#C[C@@]1(O)[C@@H](COC(Cc2ccccc2)(C(=O)O)C(=O)O)O[C@@H](n2cnc3c(N[C@H]4CCc5ccccc54)nc(Cl)nc32)[C@@H]1O [Example 72, 2-benzyl-2-(((2R,3S,4R,5R)-5-(2-chloro-6-(((S)-2,3-dihydro-1H-inden-1-yl)amino)-9H-purin-9-yl)-3-ethynyl-3,4-dihydroxytetrahydrofuran-2-yl)methoxy)-malonic acid]
1	C#C[C@@]1(O)[C@@H](COC(Cc2ccccc2)(C(=O)O)C(=O)O)O[C@@H](n2cnc3c(NCC)nc(Cl)nc32)[C@@H]1O [Example 73, 2-benzyl-2-(((2R,3S,4R,5R)-5-(2-chloro-6-(ethylamino)-9H-purin-9-yl)-3-ethynyl-3,4-dihydroxytetrahydrofuran-2-yl)methoxy)malonic acid]
2	C#C[C@@]1(O)[C@@H](COC(Cc2ccccc2)(C(=O)O)C(=O)O)O[C@@H](n2cnc3c(N[C@@H](C)CC)nc(Cl)nc32)[C@@H]1O [Example 74, 2-benzyl-2-(((2R,3S,4R,5R)-5-(6-((S)-sec-butylamino)-2-chloro-9H-purin-9-yl)-3-ethynyl-3,4-dihydroxytetrahydrofuran-2-yl)methoxy)malonic acid]
0.6	C#C[C@@]1(O)[C@@H](COC(Cc2ccccc2)(C(=O)O)C(=O)O)O[C@@H](n2cnc3c(N(C)CC4CC4)nc(Cl)nc32)[C@@H]1O [Example 75, 2-benzyl-2-(((2R,3S,4R,5R)-5-(2-chloro-6-((cyclopropylmethyl)-(methyl)amino)-9H-purin-9-yl)-3-ethynyl-3,4-dihydroxytetrahydrofuran-2-yl)methoxy)malonic acid]
6	C#C[C@@]1(O)[C@@H](COC(Cc2ccccc2)(C(=O)O)C(=O)O)O[C@@H](n2cnc3c(NCC(=O)O)nc(Cl)nc32)[C@@H]1O [Example 76, 2-benzyl-2-(((2R,3S,4R,5R)-5-(6-((carboxymethyl)amino)-2-chloro-9H-purin-9-yl)-3-ethynyl-3,4-dihydroxytetrahydrofuran-2-yl)methoxy)malonic acid]
2	C#C[C@@]1(O)[C@@H](COC(Cc2ccccc2)(C(=O)O)C(=O)O)O[C@@H](n2cnc3c(NCc4ccccc4Cl)nc(Cl)nc32)[C@@H]1O [Example 77, 2-benzyl-2-(((2R,3S,4R,5R)-5-(2-chloro-6-((2-chlorobenzyl)amino)-9H-purin-9-yl)-3-ethynyl-3,4-dihydroxytetrahydrofuran-2-yl)methoxy)malonic acid]
2	C#C[C@@]1(O)[C@@H](COC(Cc2ccccc2)(C(=O)O)C(=O)O)O[C@@H](n2cnc3c(NCc4ccncc4)nc(Cl)nc32)[C@@H]1O [Example 78, 2-benzyl-2-(((2R,3S,4R,5R)-5-(2-chloro-6-((pyridin-4-ylmethyl)amino)-9H-purin-9-yl)-3-ethynyl-3,4-dihydroxytetrahydrofuran-2-yl)methoxy)malonic acid]
4	C#C[C@@]1(O)[C@@H](COC(Cc2ccccc2)(C(=O)O)C(=O)O)O[C@@H](n2cnc3c(N4CCOCC4)nc(Cl)nc32)[C@@H]1O [Example 79, 2-benzyl-2-(((2R,3S,4R,5R)-5-(2-chloro-6-morpholino-9H-purin-9-yl)-3-ethynyl-3,4-dihydroxytetrahydrofuran-2-yl)methoxy)malonic acid]
